From the CheMixHub viscosity set

Test: xn = mol fraction of the nth substance listed

CCCCC(CC)COP(=O)(O)OCC(CC)CCCC (stereo unspecified) + CCC(=O)O
303.15 K, 101 kPa
Conditions | viscosity [mPa·s]
x1 = 0.0668 | 1.394
x1 = 0.1278 | 1.986
x1 = 0.2286 | 3.022
x1 = 0.3182 | 4.286
x1 = 0.4677 | 6.968
x1 = 0.5096 | 7.792
x1 = 0.5879 | 9.486
x1 = 0.6584 | 11.01
x1 = 0.7068 | 12.08
x1 = 0.7594 | 13.3
x1 = 0.814 | 14.5
x1 = 0.8783 | 16.08
x1 = 0.9378 | 17.59

Cc1cccc(O)c1 + CCC(=O)O
viscosity [mPa·s], 101 kPa
Conditions | x2 = 0.1345 | x2 = 0.2591 | x2 = 0.3747 | x2 = 0.4825 | x2 = 0.5831 | x2 = 0.6772 | x2 = 0.7654 | x2 = 0.8483 | x2 = 0.9264
298.15 K | 9.375 | 7.067 | 5.436 | 4.234 | 3.319 | 2.606 | 2.045 | 1.606 | 1.269
308.15 K | 5.793 | 4.756 | 3.908 | 3.221 | 2.608 | 2.105 | 1.658 | 1.316 | 1.088
318.15 K | 4.646 | 3.935 | 3.285 | 2.719 | 2.255 | 1.884 | 1.566 | 1.277 | 0.9609

C[N+](=O)[O-] + CCC(C)=O
298.15 K, 101 kPa
Conditions | viscosity [mPa·s]
x1 = 0.1563 | 0.4237
x1 = 0.2954 | 0.4466
x1 = 0.418 | 0.4694
x1 = 0.5281 | 0.4923
x1 = 0.6264 | 0.515
x1 = 0.7156 | 0.5377
x1 = 0.7963 | 0.5604
x1 = 0.8703 | 0.5834
x1 = 0.9376 | 0.6067

C[N+](=O)[O-] + CCC(C)O
viscosity [mPa·s], 101.33 kPa
Conditions | 293.15 K | 303.15 K | 313.15 K
x2 = 0.05 | 0.631 | 0.562 | 0.508
x2 = 0.1 | 0.639 | 0.564 | 0.504
x2 = 0.15 | 0.65 | 0.571 | 0.506
x2 = 0.2002 | 0.676 | 0.584 | 0.515
x2 = 0.25 | 0.707 | 0.605 | 0.528
x2 = 0.3 | 0.751 | 0.633 | 0.546
x2 = 0.35 | 0.805 | 0.666 | 0.574
x2 = 0.4 | 0.864 | 0.705 | 0.595
x2 = 0.45 | 0.931 | 0.751 | 0.625
x2 = 0.5 | 0.995 | 0.798 | 0.659
x2 = 0.5502 | 1.081 | 0.854 | 0.7
x2 = 0.6 | 1.169 | 0.916 | 0.743
x2 = 0.6499 | 1.275 | 0.991 | 0.796
x2 = 0.7 | 1.4 | 1.079 | 0.857
x2 = 0.75 | 1.547 | 1.187 | 0.933
x2 = 0.8 | 1.742 | 1.316 | 1.03
x2 = 0.85 | 1.995 | 1.5 | 1.14
x2 = 0.9001 | 2.341 | 1.703 | 1.283
x2 = 0.95 | 2.845 | 2.02 | 1.477
